Data: paper PMC6934184, “Selective DNA-PKcs inhibition extends the therapeutic index of localized radiotherapy and chemotherapy” (The Journal of Clinical Investigation, 2019)

Molecular target: T1, CLK3 (Homo sapiens, UniProt P49761)
T1 construct: purchased Thermo Fisher Scientific (Life Technologies) SelectScreen
Test: SelectScreen Z'LYTE
Assay type: biochemical
Outline: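 NU5455 was profiled across the SelectScreen Broad panel of kinase activity and binding assays. Z'LYTE reactions such as CSF1R ran at apparent Km ATP, while the Adapta CAMK1 assay used ATP listed as 10. Values are given as percent.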

T1 sequence (P49761 whole entry): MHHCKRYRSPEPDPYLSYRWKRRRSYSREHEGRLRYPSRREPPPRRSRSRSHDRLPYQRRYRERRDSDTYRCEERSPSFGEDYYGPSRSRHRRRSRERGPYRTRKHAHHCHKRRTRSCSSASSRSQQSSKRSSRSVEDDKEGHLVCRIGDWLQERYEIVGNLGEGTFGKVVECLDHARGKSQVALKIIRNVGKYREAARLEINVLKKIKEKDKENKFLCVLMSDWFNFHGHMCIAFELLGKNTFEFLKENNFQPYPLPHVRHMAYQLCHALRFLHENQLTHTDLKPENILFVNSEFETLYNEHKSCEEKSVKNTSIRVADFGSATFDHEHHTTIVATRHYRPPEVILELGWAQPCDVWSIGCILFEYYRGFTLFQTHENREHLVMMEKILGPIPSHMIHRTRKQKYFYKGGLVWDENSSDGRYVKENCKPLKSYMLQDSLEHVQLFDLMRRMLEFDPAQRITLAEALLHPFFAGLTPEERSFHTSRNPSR

CN(C(=O)CN1CCOCC1)c1ccc2sc3c(-c4cccc5c(=O)cc(N6CC7CCC(C6)O7)oc45)cccc3c2c1 [NU5455]
inhibition at 1 µM: -0.5%
